Measurements taken from the supplement of paper PMC11061612.

Legend:
Assay in all cases: Bliss excess, mean over the matrix (fraction); higher = more synergy
[1] = tested on: LU-165 (Small Cell Lung Carcinoma)
In short: (§1)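 Cell lines grown in DMEM/F12 or RPMI with 10% FBS were plated in 1536-well plates and held 24 hours at 37°C, 5% CO2 before 72 hours of exposure to two-drug dose matrices, with DMSO typically at 0.2%. CellTiter-Glo 2.0 luminescence gave viability, which was converted to inhibition. Vehicle wells were set to 0 and blank wells to 1. Combination Emax is the second-highest inhibition in the matrix, and Bliss excess is the observed combination effect minus the expected EA + EB − EA·EB, where EA and EB are the single-agent effects.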

[2] = tested on: JHH-2 (Hepatocellular Carcinoma)
In short: as §1

HCC70 (Breast Carcinoma) = tested on: HCC70 (Breast Carcinoma)
In short: as §1

EW-7 (Ewing's Sarcoma) = tested on: EW-7 (Ewing's Sarcoma)
In short: as §1

769-P (Kidney Carcinoma) = tested on: 769-P (Kidney Carcinoma)
In short: as §1

[3] = tested on: NCI-H2087 (Lung Adenocarcinoma)
In short: as §1

[4] = tested on: MHH-ES-1 (Ewing's Sarcoma)
In short: as §1

[5] = tested on: NCI-H441 (Lung Adenocarcinoma)
In short: as §1

[6] = tested on: NCI-H1651 (Lung Adenocarcinoma)
In short: as §1

IM-9 (Non-Cancerous) = tested on: IM-9 (Non-Cancerous)
In short: as §1

[7] = tested on: JHU-022 (Oral Cavity Carcinoma)
In short: as §1

[8] = tested on: 22RV1 (Prostate Carcinoma)
In short: as §1

[9] = tested on: CGTH-W-1 (Thyroid Gland Carcinoma)
In short: as §1

[10] = tested on: UACC-812 (Breast Carcinoma)
In short: as §1

[11] = tested on: HCC1395 (Breast Carcinoma)
In short: as §1

[12] = tested on: SW620 (Colorectal Carcinoma)
In short: as §1

[13] = tested on: KYSE-220 (Esophageal Squamous Cell Carcinoma)
In short: as §1

WM1552C (Melanoma) = tested on: WM1552C (Melanoma)
In short: as §1

[14] = tested on: NCI-H1703 (Squamous Cell Lung Carcinoma)
In short: as §1

EB2 (Burkitt's Lymphoma) = tested on: EB2 (Burkitt's Lymphoma)
In short: as §1

| SMILES | Bliss excess [1] | Bliss excess [2] | Bliss excess (HCC70 (Breast Carcinoma)) | Bliss excess (EW-7 (Ewing's Sarcoma)) | Bliss excess (769-P (Kidney Carcinoma)) | Bliss excess [3] | Bliss excess [4] | Bliss excess [5] | Bliss excess [6] | Bliss excess (IM-9 (Non-Cancerous)) | Bliss excess [7] | Bliss excess [8] | Bliss excess [9] | Bliss excess [10] | Bliss excess [11] | Bliss excess [12] | Bliss excess [13] | Bliss excess (WM1552C (Melanoma)) | Bliss excess [14] | Bliss excess (EB2 (Burkitt's Lymphoma)) |
| --- | --- | --- | --- | --- | --- | --- | --- | --- | --- | --- | --- | --- | --- | --- | --- | --- | --- | --- | --- | --- |
| CN(CCO)CC[C@H](CSc1ccccc1)Nc1ccc(S(=O)(=O)NC(=O)c2ccc(N3CCC([C@@H](O)c4ccccc4-c4ccc(Cl)cc4)CC3)cc2)cc1S(=O)(=O)C(F)(F)F [AZD4320] + CC(=O)O[C@H]1C(=O)[C@@]2(C)[C@H]([C@H](OC(=O)c3ccccc3)[C@]3(O)C[C@H](OC(=O)[C@H](O)[C@@H](NC(=O)c4ccccc4)c4ccccc4)C(C)=C1C3(C)C)[C@]1(OC(C)=O)CO[C@@H]1C[C@@H]2O [Paclitaxel] (first compound max 1 µM, 7x7, partner max 3 µM) | 0.137 | -0.0037 | 0.0533 | 0.132 | -0.0444 | 0.13 | 0.0393 | 0.0861 | -0.0099 | 0.0239 | 0.155 | -0.0017 | 0.277 | 0.0887 | 0.174 | 0.11 | 0.0169 | -0.0076 | -0.0223 | -0.0306 |
| Cc1cc2ncnn2cc1Nc1ncc2c(n1)n(C1CCOCC1)c(=O)n2C [AZD7648] + CN(C)CCCOc1ccc(-c2ccc3ncc4c(c3c2)n(C2CCOCC2)c(=O)n4C)cn1 [AZD0156] (first compound max 10 µM, 7x7, partner max 1 µM) | 0.0071 | -0.0441 | -0.0122 | -0.03 | -0.0086 | -0.0115 | 0.0138 | -0.0016 | 0.0089 | -0.0509 | -0.057 | -0.0334 | 0.0015 | 0.033 | -0.0273 | 0.0148 | 0.0204 | 0.0249 | -0.033 | -0.0217 |
| Cc1cc2ncnn2cc1Nc1ncc2c(n1)n(C1CCOCC1)c(=O)n2C [AZD7648] + O=C(c1cc(Cc2n[nH]c(=O)c3ccccc23)ccc1F)N1CCN(C(=O)C2CC2)CC1 [Olaparib] (first compound max 10 µM, 7x7, partner max 10 µM) | -0.102 | -0.0099 | -0.0292 | -0.0027 | -0.024 | -0.0207 | -0.0218 | -0.0555 | -0.0356 | -0.0144 | -0.0682 | -0.0832 | -0.0412 | -0.0119 | -0.0871 | -0.0305 | -0.0372 | -0.0418 | -0.0307 | 0.0055 |
| Cc1nc(Nc2ncc(C(=O)Nc3c(C)cccc3Cl)s2)cc(N2CCN(CCO)CC2)n1 [Dasatinib] + CC(=O)Nc1cccc(-n2c(=O)n(C3CC3)c(=O)c3c(Nc4ccc(I)cc4F)n(C)c(=O)c(C)c32)c1 [Trametinib] (first compound max 2 µM, 7x7, partner max 1 µM) | -0.04 | -0.076 | -0.0217 | -0.0074 | -0.0331 | -0.0024 | -0.0487 | 0.024 | -0.042 | -0.0439 | -0.0483 | -0.0578 | -0.0129 | – | -0.0332 | -0.0107 | -0.0522 | 0.0003 | -0.0483 | 0.0027 |
| C[C@@H](c1ccc2nccn2c1)n1nnc2ncc(-c3cnn(C)c3)nc21 [Savolitinib] + CN(CC[C@H](CSC1=CC=CC=C1)NC2=C(C=C(C=C2)S(=O)(=O)NC(=O)C3=CC=C(C=C3)N4CCC(CC4)[C@H](C5=CC=CC=C5C6=CC=C(C=C6)Cl)O)S(=O)(=O)C(F)(F)F)CCO [AZD4320] (first compound max 1 µM, 7x7, partner max 1 µM) | – | – | – | – | – | – | -0.0154 | – | – | – | – | – | – | – | – | -0.0642 | – | – | – | – |
| CN(CCO)CC[C@H](CSc1ccccc1)Nc1ccc(S(=O)(=O)NC(=O)c2ccc(N3CCC([C@@H](O)c4ccccc4-c4ccc(Cl)cc4)CC3)cc2)cc1S(=O)(=O)C(F)(F)F [AZD4320] + CCN(CCO)CCCOc1ccc2c(Nc3cc(CC(=O)Nc4cccc(F)c4)[nH]n3)ncnc2c1 [AZD2811] (first compound max 1 µM, 7x7, partner max 1 µM) | -0.0081 | -0.0489 | 0.0345 | 0.126 | 0.0052 | 0.0018 | 0.14 | -0.0407 | -0.0013 | -0.0509 | -0.0183 | -0.0342 | – | -0.0194 | 0.0121 | 0.0931 | 0.0129 | -0.0152 | 0.0384 | 0.0254 |
| CC(=O)c1c(C)c2cnc(Nc3ccc(N4CCNCC4)cn3)nc2n(C2CCCC2)c1=O [Palbociclib] + CN(CC[C@H](CSC1=CC=CC=C1)NC2=C(C=C(C=C2)S(=O)(=O)NC(=O)C3=CC=C(C=C3)N4CCC(CC4)[C@H](C5=CC=CC=C5C6=CC=C(C=C6)Cl)O)S(=O)(=O)C(F)(F)F)CCO [AZD4320] (first compound max 10 µM, 7x7, partner max 1 µM) | – | – | – | – | – | – | 0.0028 | – | – | – | – | – | – | – | – | -0.0622 | – | – | – | – |
| COc1nnc2ccc(N3CCC(c4ccc(OCCN5CCN(C)C(=O)[C@H]5C)cc4)CC3)nn12 [AZD5153] + CN(CC[C@H](CSC1=CC=CC=C1)NC2=C(C=C(C=C2)S(=O)(=O)NC(=O)C3=CC=C(C=C3)N4CCC(CC4)[C@H](C5=CC=CC=C5C6=CC=C(C=C6)Cl)O)S(=O)(=O)C(F)(F)F)CCO [AZD4320] (first compound max 1 µM, 7x7, partner max 1 µM) | – | – | – | – | – | – | 0.0258 | – | – | – | – | – | – | – | – | 0.036 | – | – | – | – |
